Like-named read-outs stand apart in the source and are kept apart here.

This assay relates to DU145-TXR cells. The assay is described as follows: MTT viability assay, reversal of MDR (re-sensitization to paclitaxel) in P-gp overexpressing DU145-TXR cells. The assay is classed as cell-based, human. The conditions noted are these: for % Survival, mean / % Survival: 15 µM compound + 500 nM PTX (Paclitaxel, Taxol); for % Survival, mean / % Survival / viability at 15 µM: DU145-TXR; for Re-sensitization of DU145-TXR cells to PTX (reversal of MDR): 15 µM compound with or without 500 nM PTX, 48 h, MTT, re-sensitization = 30% or greater decrease in cell viability; for viability at 15 µM: Homo sapiens, 15 µM Compound Alone. Here is the method:
The chemotherapeutic sensitive DU145 human prostate cancer cells and the multidrug resistant sub-line, DU145-TXR, were generous gifts from Dr. Evan Keller (University of Michigan, Ann Arbor, MI). The MDR, P-gp overexpressing DU145-TXR cells were maintained under positive selection pressure by supplementing complete medium with 10 nM paclitaxel (Acros Organics, NJ). In addition to the aforementioned cell lines, the chemotherapeutic sensitive A2780 ovarian cancer cells (93112519, Sigma) and the multidrug resistant A2780-ADR (93112520, Sigma) were maintained in complete RPMI media consisting of RPMI-1640 with L-glutamine, 10% fetal bovine serum (FBS; Corning), 100 U/mL penicillin and 100 μg/mL streptomycin in a humidified incubator at 37 °C and 5% CO2. The MDR, P-gp overexpressing A2780-ADR cell line was maintained under positive selection pressure by supplementing complete medium with 100 nM doxorubicin (Fisher Scientific, NJ). The non-cancerous HFL1 (human lung fibroblast) cell line cell line was a generous gift from Dr. Robert Harrod (Southern Methodist University, Dallas, TX) and was maintained in complete F12K media consisting of F12K with 10% fetal bovine serum, 100 U/mL penicillin, and 100 µg/mL streptomycin (Gibco). Flasks and 96 well plates that were used with the non-cancerous line HFL1 were pre-treated with 0.1 mg/ml Collagen Type 1 (Gibco) and rinsed with PBS (Fisher).
Culture of the DU145, DU145-TXR, and HFL1 cell lines was performed as described in [8]. Culture of the A2780 and A2780-ADR cell lines was performed as described in [9]. MTT assays were performed as described in [8] with minor modifications. LC-MS/MS accumulation assays were performed as described in {Nanayakkara, 2018 #173} [9] with some modifications. […] The inhibitor concentration was lowered to 15 µM here, as the goal of the study was to identify compounds that were effective in reversing MDR at low concentrations, and to determine if the expanded virtual-assisted methods improved on our first-draft attempt. Compounds 56–98 were pre-screened using Resazurin cell viability assays: cells were incubated with 15 µM compound with or without 500 nM PTX for 48 hours, after which cell survival was assessed similar to [39]. Data represent the mean of two separate experiments, with n = 3 samples per experiment (n = 6 total) (S4 Table). The top performing compounds from this initial screen were re-tested with MTT viability assays against DU145-TXR cells, as described below.
MTT assays measure the reduction of yellow, water soluble 3-(4,5-dimethylthiazol-2-yl)-2,5-diphenyltetrazolium bromide (MTT) to blue, insoluble formazan crystals by cellular reductase processes in living cells. Cells were trypsinized from monolayers and seeded in complete medium in 96 well plates. Cancerous cell lines (DU145, DU145-TXR, A2780, A2780-ADR) were seeded at 3,000 cells per well in complete RPMI medium. The non-cancerous HFL1 line was seeded at 4,000 cells per well in complete F12K medium, in collagen-treated plates (Collagen Type 1, Gibco). Cells were incubated with experimental compounds for 48 hours at 37 °C and 5% CO2 in a humidified incubator. At 48 hours, MTT was added (20 µL/well of 5 mg/mL MTT in PBS) to each well. After incubation for 4 hours, the media was removed, and the formazan crystals were dissolved in 100 µL DMSO per well. Plates containing the semi-adherent A2780 or A2780-ADR lines were spun at 1400 rpm for 3 minutes prior to aspiration of media, and the addition of DMSO. Plates were shaken for 10 minutes at 500 rpm on an Orbital shaker (LabDoctor from MidSci, St Louis, MO). The absorbance was measured at 570 nm using a Bio-Tek Cytation 5 (Bio-Tek, Winooski, VT). The measured absorbance value was correlated with the number of metabolically active cells in that well, corrected for absorbance of media. […]

[1] abbreviates: mean of 8 samples, read-out: % Survival, mean.
Where [2] appears, read: trial 1, sample 1, read-out: % Survival.
The mark [3] stands for this setting: trial 1, sample 2, read-out: % Survival.
The mark [4] stands for this setting: trial 1, sample 3, read-out: % Survival.
Where [5] appears, read: trial 1, sample 4, read-out: % Survival.
Setting [6] is: trial 2, sample 1, read-out: % Survival.
[7] abbreviates: trial 2, sample 2, read-out: % Survival.
[8] abbreviates: trial 2, sample 3, read-out: % Survival.
Setting [9] is: trial 2, sample 4, read-out: % Survival.

Regarding `Cn1cnnc1SCc1c(C(=O)O)nnn1-c1nonc1N` [Compound 59, Cn1cnnc1SCc1c(nnn1-c1nonc1N)C(O)=O], the “Re-sensitization of DU145-TXR cells to PTX (reversal of MDR)” value (shortened to “Re-sensitization of DU145-TXR cells”) was “did not reverse MDR in DU145-TXR cells”. Besides, where the note is “mean of 8 samples”, the “% Survival, mean” value was found to be 114.8%. Moreover, the “% Survival” value (trial 1, sample 1) was 116%. Besides, under “trial 1, sample 2”, the “% Survival” value is given as 115%. Further, the “% Survival” value (trial 1, sample 3) is on record as 139%. Moreover, the “% Survival” value (trial 1, sample 4) is reported as 150%. Moreover, for the setting “trial 2, sample 1”, the “% Survival” value came to 95%. For the same compound, the “% Survival” value (trial 2, sample 2) amounted to 97%. For the setting “trial 2, sample 3”, the “% Survival” value came to 95%. In addition, the “% Survival” value (trial 2, sample 4) is reported as 111%. For the same compound, under setting [1], the viability at 15 µM was 107%. Also, the viability at 15 µM under setting [2] worked out at 132%. The viability at 15 µM under setting [3] was 105%. For the same compound, the viability at 15 µM under setting [4] amounted to 116%. The viability at 15 µM under setting [5] came out at 103%. Besides, the viability at 15 µM under setting [6] came out at 103%. The viability at 15 µM under setting [7] turned out to be 102%. The viability at 15 µM under setting [8] came out at 99%. Besides, under setting [9], the viability at 15 µM was determined as 99%.

In the case of `Nc1nonc1-n1nnc(C(=O)N/N=C/c2c3ccccc3cc3ccccc23)c1COc1ccc(F)cc1` [Compound 60, Nc1nonc1-n1nnc(C(=O)N\N=C\c2c3ccccc3cc3ccccc23)c1COc1ccc(F)cc1], the “% Survival, mean” value (mean of 8 samples) is given as 92.8%. The “% Survival” value is, setting by setting: (trial 1, sample 1) 84%; (trial 1, sample 2) 102%; (trial 1, sample 3) 83%; (trial 1, sample 4) 120%; (trial 2, sample 1) 83%; (trial 2, sample 2) 92%. Moreover, the “% Survival” value runs as follows: (trial 2, sample 3) 89%; (trial 2, sample 4) 89%. Further, the viability at 15 µM is, setting by setting: under setting [1], 93.6%; under setting [2], 100%; under setting [3], 103%; under setting [4], 90%; under setting [5], 96%; under setting [6], 93%. The viability at 15 µM by setting is: under setting [7], 88%; under setting [8], 95%; under setting [9], 83%.

`CCN1CCN(Cc2c(C(=O)N/N=C3/C(=O)N(C)c4ccccc43)nnn2-c2nonc2N)CC1` [Compound 61, CCN1CCN(Cc2c(nnn2-c2nonc2N)C(=O)N\N=C2\C(=O)N(C)c3ccccc23)CC1]: the “Re-sensitization of DU145-TXR cells” value is recorded as “re-sensitized DU145-TXR cells to PTX”. Further, the “% Survival, mean” value (mean of 8 samples) is 51.6%. Moreover, the “% Survival” value (trial 1, sample 1) is 62%. Where the note is “trial 1, sample 2”, the “% Survival” value is given as 67%. Also, under “trial 1, sample 3”, the “% Survival” value was 64%. Further, the “% Survival” value (trial 1, sample 4) worked out at 77%. Also, the “% Survival” value (trial 2, sample 1) is 33%. The “% Survival” value (trial 2, sample 2) came out at 35%. Also, the “% Survival” value (trial 2, sample 3) turned out to be 31%. Also, the “% Survival” value (trial 2, sample 4) is reported as 44%. For the same compound, under setting [1], the viability at 15 µM came to 99.3%. Further, the viability at 15 µM under setting [2] stood at 118%. The viability at 15 µM under setting [3] worked out at 117%. In addition, the viability at 15 µM under setting [4] is 119%. The viability at 15 µM under setting [5] worked out at 123%. In addition, the viability at 15 µM under setting [6] was found to be 93%. The viability at 15 µM under setting [7] is 75%. For the same compound, under setting [8], the viability at 15 µM worked out at 77%. The viability at 15 µM under setting [9] was determined as 72%.

As to `O=C(c1cc2ccccc2[nH]1)N1CCN(S(=O)(=O)c2cccc3nonc23)CC1` [Compound 66, O=C(N1CCN(CC1)S(=O)(=O)c1cccc2nonc12)c1cc2ccccc2[nH]1], the “% Survival, mean” value (mean of 8 samples) came out at 81.6%. Further, the “% Survival” value (trial 1, sample 1) was determined as 89%; the “% Survival” value (trial 1, sample 2) was 94%; the “% Survival” value (trial 1, sample 3) was 92%; the “% Survival” value (trial 1, sample 4) is 90%; the “% Survival” value (trial 2, sample 1) worked out at 73%; the “% Survival” value (trial 2, sample 2) is listed as 76%. Also, the “% Survival” value by setting is: (trial 2, sample 3) 68%; (trial 2, sample 4) 70%. The viability at 15 µM under setting [1] turned out to be 84.2%; the viability at 15 µM under setting [2] is 87%; the viability at 15 µM under setting [3] is 96%; the viability at 15 µM under setting [4] came to 92%; the viability at 15 µM under setting [5] was found to be 90%; the viability at 15 µM under setting [6] is 76%. For the same compound, the viability at 15 µM by setting is: under setting [7], 73%; under setting [8], 78%; under setting [9], 82%.

For the compound `O=C(c1nc(-c2ccc3cc[nH]c3c2)no1)N1CCN(c2nsc3ccccc23)CC1` [Compound 70, O=C(N1CCN(CC1)c1nsc2ccccc12)c1nc(no1)-c1ccc2cc[nH]c2c1], the “Re-sensitization of DU145-TXR cells” value was “re-sensitized DU145-TXR cells to PTX”. In addition, where the note is “mean of 8 samples”, the “% Survival, mean” value is listed as 47.0%. Besides, the “% Survival” value (trial 1, sample 1) is given as 51%. The “% Survival” value (trial 1, sample 2) turned out to be 55%. In addition, the “% Survival” value (trial 1, sample 3) is 50%. Moreover, for the setting “trial 1, sample 4”, the “% Survival” value worked out at 54%. The “% Survival” value (trial 2, sample 1) is on record as 41%. Besides, the “% Survival” value (trial 2, sample 2) is on record as 36%. Besides, the “% Survival” value (trial 2, sample 3) amounted to 46%. Moreover, where the note is “trial 2, sample 4”, the “% Survival” value is given as 43%. Besides, the viability at 15 µM under setting [1] is 91.3%. Besides, the viability at 15 µM under setting [2] stood at 92%. Further, the viability at 15 µM under setting [3] came out at 103%. Moreover, the viability at 15 µM under setting [4] stood at 101%. Further, the viability at 15 µM under setting [5] worked out at 96%. The viability at 15 µM under setting [6] came to 90%. Also, the viability at 15 µM under setting [7] was 83%. In addition, under setting [8], the viability at 15 µM is 85%. In addition, under setting [9], the viability at 15 µM was 80%.

With `COc1ccc(OC)c(NC(=O)c2nnn(-c3ccc4noc(-c5ccccc5)c4c3)c2C)c1` [Compound 71, COc1ccc(OC)c(NC(=O)c2nnn(c2C)-c2ccc3noc(-c4ccccc4)c3c2)c1], the “% Survival, mean” value (mean of 8 samples) came to 41.6%. Also, the “% Survival” value (trial 1, sample 1) amounted to 48%; the “% Survival” value (trial 1, sample 2) is 45%; the “% Survival” value (trial 1, sample 3) was determined as 45%; the “% Survival” value (trial 1, sample 4) came out at 51%; the “% Survival” value (trial 2, sample 1) was 33%; the “% Survival” value (trial 2, sample 2) amounted to 33%. Also, the “% Survival” value (trial 2, sample 3) is 36% and the “% Survival” value (trial 2, sample 4) is 42%. Also, the viability at 15 µM under setting [1] is 33.8%; the viability at 15 µM under setting [2] was found to be 44%; the viability at 15 µM under setting [3] was 33%; the viability at 15 µM under setting [4] was 39%; the viability at 15 µM under setting [5] worked out at 41%; the viability at 15 µM under setting [6] was 36%. Besides, the viability at 15 µM by setting is: under setting [7], 25%; under setting [8], 28%; under setting [9], 25%.
